Data reported in patent publication US11980188B2, “Spiro cyclohexanedione derivates as herbicides” (SYNGENTA PARTICIPATIONS AG, priority 2018, dated 2024).

Assays:
Assay in all cases: Glasshouse herbicide test, pre- and post-emergence, percentage damage
Type in all cases: in vivo
[1] = tested on: Alopecurus myosuroides (ALOMY); conditions: 250 g/h, evaluated after 13 days, percentage damage on five point scale; for ALOMY POST: post-emergence; for ALOMY PRE: pre-emergence
Procedure: (§1) Seeds of a variety of test species are sown in standard soil in pots (Lolium perenne (LOLPE), Setaria faberi (SETFA), Alopecurus myosuroides (ALOMY), Echinochloa crus-galli (ECHCG), Avena fatua (AVEFA)). After cultivation for one day (pre-emergence) or after 8 days cultivation (post-emergence) under controlled conditions in a glasshouse (at 24/16° C., day/night; 14 hours light; 65% humidity), the plants are sprayed with an aqueous spray solution derived from the formulation of the technical active ingredient in acetone/water (50:50) solution containing 0.5% Tween 20 (polyoxyethelyene sorbitan monolaurate, CAS RN 9005-64-5). Compounds are applied at […]. The test plants are then grown in a glasshouse under controlled conditions in a glasshouse (at 24/16° C., day/night; 14 hours light; 65% humidity) and watered twice daily. After 13 days for pre and post-emergence, the test is evaluated for the percentage damage caused to the plant. The biological activities are shown in the following table on a five point scale (5=80-100%; 4=60-79%; 3=40-59%; 2=20-39%; 1=0-19%).

Avena fatua (AVEFA) = conditions: 250 g/h, evaluated after 13 days, percentage damage on five point scale; for AVEFA POST: post-emergence; for AVEFA PRE: pre-emergence
Procedure: as §1

[2] = tested on: Echinochloa crus-galli (ECHCG); conditions: 250 g/h, evaluated after 13 days, percentage damage on five point scale; for ECHCG POST: post-emergence; for ECHCG PRE: pre-emergence
Procedure: as §1

Lolium perenne (LOLPE) = conditions: 250 g/h, evaluated after 13 days, percentage damage on five point scale; for LOLPE POST: post-emergence; for LOLPE PRE: pre-emergence
Procedure: as §1

Setaria faberi (SETFA) = conditions: 250 g/h, evaluated after 13 days, percentage damage on five point scale; for SETFA POST: post-emergence; for SETFA PRE: pre-emergence
Procedure: as §1

Structure (SMILES)	ALOMY POST [1]	AVEFA POST (Avena fatua (AVEFA))	AVEFA PRE (Avena fatua (AVEFA))	ECHCG POST [2]	ECHCG PRE [2]	LOLPE POST (Lolium perenne (LOLPE))	LOLPE PRE (Lolium perenne (LOLPE))	SETFA POST (Setaria faberi (SETFA))	SETFA PRE (Setaria faberi (SETFA))	ALOMY PRE [1]
Cc1cc(-c2ccc(C#N)cn2)cc(C)c1C1C(=O)CC2(CCN(C(=O)C(F)F)CC2)CC1=O [Compound A29]	5 (5=80-100%)	5 (5=80-100%)	5 (5=80-100%)	4 (4=60-79%)	1 (1=0-19%)	5 (5=80-100%)	1 (1=0-19%)	5 (5=80-100%)	5 (5=80-100%)	–
COc1cc(-c2ccc(C#N)cn2)cc(OC)c1C1C(=O)CC2(CCN(C(C)=O)CC2)CC1=O [Compound A16]	5 (5=80-100%)	5 (5=80-100%)	4 (4=60-79%)	–	5 (5=80-100%)	4 (4=60-79%)	3 (3=40-59%)	5 (5=80-100%)	4 (4=60-79%)	1 (1=0-19%)
Cc1cc(-c2ncc(F)cn2)cc(C)c1C1C(=O)CC2(CCN(C(=O)NC(C)(C)C)CC2)CC1=O [Compound A36]	5 (5=80-100%)	5 (5=80-100%)	5 (5=80-100%)	–	5 (5=80-100%)	5 (5=80-100%)	5 (5=80-100%)	5 (5=80-100%)	5 (5=80-100%)	5 (5=80-100%)
CC(=O)N1CCC2(CC1)CC(=O)C(c1c(C)cc(-c3ncc(C#N)cn3)cc1C)C(=O)C2 [Compound A52]	5 (5=80-100%)	5 (5=80-100%)	5 (5=80-100%)	5 (5=80-100%)	5 (5=80-100%)	5 (5=80-100%)	5 (5=80-100%)	5 (5=80-100%)	5 (5=80-100%)	5 (5=80-100%)
CC(=O)N1CCC2(CC1)CC(=O)C(c1c(C)cc(C)cc1C)C(=O)C2 [Compound A42]	5 (5=80-100%)	5 (5=80-100%)	5 (5=80-100%)	1 (1=0-19%)	3 (3=40-59%)	5 (5=80-100%)	5 (5=80-100%)	5 (5=80-100%)	5 (5=80-100%)	5 (5=80-100%)
Cc1cc(-c2ccc(F)cc2)cc(C)c1C1C(=O)CC2(CCN(C(=O)c3ccccc3)CC2)CC1=O [Compound A54]	–	5 (5=80-100%)	5 (5=80-100%)	5 (5=80-100%)	5 (5=80-100%)	5 (5=80-100%)	5 (5=80-100%)	5 (5=80-100%)	5 (5=80-100%)	5 (5=80-100%)
Cc1cc(-c2ccc(F)cc2)cc(C)c1C1C(=O)CC2(CCN(C(=O)OC(C)(C)C)CC2)CC1=O [Compound A11]	5 (5=80-100%)	4 (4=60-79%)	4 (4=60-79%)	5 (5=80-100%)	5 (5=80-100%)	5 (5=80-100%)	5 (5=80-100%)	5 (5=80-100%)	5 (5=80-100%)	5 (5=80-100%)
Cc1cc(-c2ncc(F)cn2)cc(C)c1C1C(=O)CC2(CCN(C(=O)NC(=O)C(C)(C)C)CC2)CC1=O [Compound A37]	5 (5=80-100%)	5 (5=80-100%)	5 (5=80-100%)	–	5 (5=80-100%)	5 (5=80-100%)	5 (5=80-100%)	5 (5=80-100%)	5 (5=80-100%)	5 (5=80-100%)
CC(=O)N1CCC2(CC1)CC(=O)C(c1c(C)cc(-c3ccc(F)cc3)cc1C)C(=O)C2 [Compound A12]	5 (5=80-100%)	5 (5=80-100%)	4 (4=60-79%)	5 (5=80-100%)	5 (5=80-100%)	5 (5=80-100%)	5 (5=80-100%)	5 (5=80-100%)	5 (5=80-100%)	5 (5=80-100%)
Cc1cc(-c2ccc(C#N)cn2)cc(C)c1C1C(=O)CC2(CCN(C(=O)NC(=O)c3ccccn3)CC2)CC1=O [Compound A31]	5 (5=80-100%)	5 (5=80-100%)	–	5 (5=80-100%)	3 (3=40-59%)	5 (5=80-100%)	1 (1=0-19%)	5 (5=80-100%)	1 (1=0-19%)	1 (1=0-19%)
CC(=O)N1CCC2(CC1)CC(=O)C(c1c(C)cc(-c3ncc(Cl)cn3)cc1C)C(=O)C2 [Compound A51]	5 (5=80-100%)	5 (5=80-100%)	5 (5=80-100%)	5 (5=80-100%)	5 (5=80-100%)	5 (5=80-100%)	5 (5=80-100%)	5 (5=80-100%)	5 (5=80-100%)	5 (5=80-100%)
COc1cc(-c2ccc(F)cc2)cc(OC)c1C1C(=O)CC2(CCN(C(C)=O)CC2)CC1=O [Compound A20]	5 (5=80-100%)	5 (5=80-100%)	5 (5=80-100%)	5 (5=80-100%)	5 (5=80-100%)	5 (5=80-100%)	5 (5=80-100%)	5 (5=80-100%)	5 (5=80-100%)	5 (5=80-100%)
CCS(=O)(=O)N1CCC2(CC1)CC(=O)C(c1c(C)cc(-c3ccc(C#N)cn3)cc1C)C(=O)C2 [Compound A22]	5 (5=80-100%)	5 (5=80-100%)	5 (5=80-100%)	–	5 (5=80-100%)	5 (5=80-100%)	5 (5=80-100%)	5 (5=80-100%)	5 (5=80-100%)	5 (5=80-100%)
Cc1cc(-c2ccc(F)cc2)cc(C)c1C1C(=O)CC2(CCN(C(=O)C(F)F)CC2)CC1=O [Compound A60]	–	5 (5=80-100%)	5 (5=80-100%)	5 (5=80-100%)	5 (5=80-100%)	5 (5=80-100%)	5 (5=80-100%)	5 (5=80-100%)	5 (5=80-100%)	5 (5=80-100%)
Cc1cc(-c2ncc(F)cn2)cc(C)c1C1C(=O)CC2(CCN(C(=O)NC(=O)c3ccccn3)CC2)CC1=O [Compound A41]	5 (5=80-100%)	5 (5=80-100%)	3 (3=40-59%)	5 (5=80-100%)	4 (4=60-79%)	5 (5=80-100%)	3 (3=40-59%)	5 (5=80-100%)	5 (5=80-100%)	3 (3=40-59%)
Cc1cc(-c2ccc(F)cc2)cc(C)c1C1C(=O)CC2(CCN(C(=O)C(C)(C)C)CC2)CC1=O [Compound A61]	–	4 (4=60-79%)	2 (2=20-39%)	5 (5=80-100%)	5 (5=80-100%)	5 (5=80-100%)	5 (5=80-100%)	5 (5=80-100%)	5 (5=80-100%)	5 (5=80-100%)
CON1CCC2(CC1)CC(=O)C(c1c(C)cc(-c3ncc(Cl)cn3)cc1C)C(=O)C2 [Compound A1]	5 (5=80-100%)	5 (5=80-100%)	5 (5=80-100%)	5 (5=80-100%)	5 (5=80-100%)	5 (5=80-100%)	5 (5=80-100%)	5 (5=80-100%)	5 (5=80-100%)	5 (5=80-100%)
COc1cc(-c2ncc(F)cn2)cc(OC)c1C1C(=O)CC2(CCN(C(C)=O)CC2)CC1=O [Compound A15]	5 (5=80-100%)	5 (5=80-100%)	5 (5=80-100%)	5 (5=80-100%)	5 (5=80-100%)	5 (5=80-100%)	5 (5=80-100%)	5 (5=80-100%)	5 (5=80-100%)	5 (5=80-100%)
CC(=O)N1CCC2(CC1)CC(=O)C(c1c(C)cc(-n3cc(F)cn3)cc1C)C(=O)C2 [Compound A47]	5 (5=80-100%)	5 (5=80-100%)	4 (4=60-79%)	1 (1=0-19%)	3 (3=40-59%)	5 (5=80-100%)	4 (4=60-79%)	5 (5=80-100%)	4 (4=60-79%)	2 (2=20-39%)
